≈ marks a conversion by molar mass, not a printed value. Read-outs that look alike come from different tables or passages of the source.
Key:
P. aeruginosa 854 [1] = assay: microbe, parasite or virus in culture; type: cell-based, Pseudomonas aeruginosa
Protocol: (§1) Activity of SET-M33 and antibiotics was evaluated on six well characterized clinical strains. The strains were selected according to their resistance phenotypes and genotypes.
(§2) MICs were determined using a standard broth microdilution assay according to the guidelines of the Clinical and Laboratory Standards Institute.

P. aeruginosa AV65 [2] = assay: MIC, standard broth microdilution; type: cell-based; settings: Pseudomonas aeruginosa
Protocol: as §1, §2

A. baumannii VA566/00 [3] = assay: MIC, standard broth microdilution; type: cell-based; settings: Acinetobacter baumannii
Protocol: as §1, §2

P. aeruginosa AV65 [4] = assay: Antimicrobial activity in combination, checkerboard method; type: cell-based, Pseudomonas aeruginosa; settings: for MIC in combination, ATB: antimicrobial agent in combination with SET-M33
Protocol: as §1
(§3) Antimicrobial activity in combination was evaluated, in duplicate for each of the six strains, with the checkerboard method using cation-adjusted Mueller-Hinton broth (MHB) in 96-well microtiter plates (Sarstedt, Inc., Newton, N.C.). Assays were performed using a final bacterial inoculum of 5×10^4 CFU/well in a final volume of 100 μl. Results were recorded after 20 h of incubation at 35° C. The total fractional inhibitory concentration (ΣFIC) for each antibiotic combination was calculated according to EUCAST definitive document E.Def 1.2 [16] as follows: ΣFIC equals FIC of agent A plus FIC of agent B, where the FIC of agent A or B is the MIC of agent A or B in the presence of the other divided by the MIC of agent A or B alone. Results were interpreted according to the following definition: a ΣFIC of ≤0.5 indicated synergism, a ΣFIC of >0.5 to 1 indicated additivity, a ΣFIC of >1 to <2 indicated indifference, and a ΣFIC of ≥2 antagonism.

P. aeruginosa 854 [5] = assay: as above; type: cell-based, Pseudomonas aeruginosa; settings: for MIC in combination, ATB: antimicrobial agent in combination with SET-M33
Protocol: as §1, §3

A. baumannii VA566/00 [6] = assay: as above; type: cell-based, Acinetobacter baumannii; settings: for MIC in combination, ATB: antimicrobial agent in combination with SET-M33
Protocol: as §1, §3

A. baumannii N50 [7] = assay: as above; type: cell-based, Acinetobacter baumannii; settings: for MIC in combination, ATB: antimicrobial agent in combination with SET-M33
Protocol: as §1, §3

K. pneumoniae KKBO-4 [8] = assay: as above; type: cell-based, Klebsiella pneumoniae; settings: for MIC in combination, ATB: antimicrobial agent in combination with SET-M33
Protocol: as §1, §3

K. pneumoniae 044-R [9] = assay: as above; type: cell-based, Klebsiella pneumoniae; settings: for MIC in combination, ATB: antimicrobial agent in combination with SET-M33
Protocol: as §1, §3

K. pneumoniae KKBO-4 [10] = assay: microbe, parasite or virus in culture; type: cell-based; settings: Klebsiella pneumoniae, KKBO4
Protocol: as §1, §2

A. baumannii N50 [11] = assay: microbe, parasite or virus in culture; type: cell-based; settings: Acinetobacter baumannii
Protocol: as §1, §2

K. pneumoniae 044-R [12] = assay: microbe, parasite or virus in culture; type: cell-based; settings: Klebsiella pneumoniae; agent alone; K. pneumoniae 044-R (XDR, KPC, colR)
Protocol: as §1, §2

[13] = system: 6 MDR/XDR Gram-negative strains; assay: Checkerboard combination testing, summary over the six strains; type: cell-based
Protocol: as §1, §3

[14] = system: 6 MDR/XDR Gram-negative strains; type: cell-based
Protocol: as §1, §2

[15] = Pseudomonas aeruginosa, agent alone, P. aeruginosa 854 (XDR, VIM-1), read-out: MIC
[16] = agent alone, K. pneumoniae KKBO-4 (XDR, KPC, colR), read-out: MIC
[17] = agent alone, A. baumannii N50 (MDR, OXA-24, colR), read-out: MIC
[18] = SET-M33 in combination with aztreonam
[19] = SET-M33 in combination with meropenem
[20] = SET-M33 in combination with rifampin
[21] = SET-M33 in combination with tobramycin

## NC[C@H]1O[C@H](O[C@H]2[C@H](O)[C@@H](O[C@H]3O[C@H](CO)[C@@H](O)[C@H](N)[C@H]3O)[C@H](N)C[C@@H]2N)[C@H](N)C[C@@H]1O [tobramycin]
P. aeruginosa 854 [1]; [15]
  MIC: 256 µg/mL (≈ 548 µM)
P. aeruginosa AV65 [2]; AV65
  MIC: 128 µg/mL (≈ 274 µM)
A. baumannii VA566/00 [3]; agent alone, A. baumannii VA566/00 (MDR, OXA-24), read-out: MIC
  MIC: 16 µg/mL (≈ 34.2 µM)
P. aeruginosa AV65 [4]
  MIC in combination, ATB: 128 µg/mL
P. aeruginosa 854 [5]
  MIC in combination, ATB: 256 µg/mL
A. baumannii VA566/00 [6]
  MIC in combination, ATB: 4 µg/mL
A. baumannii N50 [7]
  MIC in combination, ATB: 0.5 µg/mL
K. pneumoniae KKBO-4 [8]
  MIC in combination, ATB: 16 µg/mL
K. pneumoniae 044-R [9]
  MIC in combination, ATB: 16 µg/mL
K. pneumoniae KKBO-4 [10]; [16]
  MIC: 32 µg/mL (≈ 68.4 µM)
A. baumannii N50 [11]; [17]
  MIC: 8 µg/mL (≈ 17.1 µM)
K. pneumoniae 044-R [12]
  MIC: 32 µg/mL (≈ 68.4 µM)

## CO[C@H]1/C=C/O[C@@]2(C)Oc3c(C)c(O)c4c(O)c(c(/C=N/N5CCN(C)CC5)c(O)c4c3C2=O)NC(=O)/C(C)=C\C=C\[C@H](C)[C@H](O)[C@@H](C)[C@@H](O)[C@@H](C)[C@H](OC(C)=O)[C@@H]1C [rifampin]
P. aeruginosa 854 [1]; [15]
  MIC: 32 µg/mL (≈ 38.9 µM)
P. aeruginosa AV65 [2]; AV65
  MIC: 128 µg/mL (≈ 156 µM)
A. baumannii VA566/00 [3]; VA566/00
  MIC: 256 µg/mL (≈ 311 µM)
P. aeruginosa AV65 [4]
  MIC in combination, ATB: 64 µg/mL
P. aeruginosa 854 [5]
  MIC in combination, ATB: 8 µg/mL
A. baumannii VA566/00 [6]
  MIC in combination, ATB: 2 µg/mL
A. baumannii N50 [7]
  MIC in combination, ATB: 4 µg/mL
K. pneumoniae KKBO-4 [8]
  MIC in combination, ATB: 32 µg/mL
K. pneumoniae 044-R [9]
  MIC in combination, ATB: 16 µg/mL
K. pneumoniae KKBO-4 [10]
  MIC: 128 µg/mL (≈ 156 µM)
A. baumannii N50 [11]; [17]
  MIC: 64 µg/mL (≈ 77.8 µM)
K. pneumoniae 044-R [12]
  MIC: 64 µg/mL (≈ 77.8 µM)

## C[C@@H](O)[C@H]1C(=O)N2C(C(=O)O)=C(S[C@@H]3CN[C@H](C(=O)N(C)C)C3)[C@H](C)[C@H]12 [meropenem]
P. aeruginosa 854 [1]; Pseudomonas aeruginosa, 854
  MIC: 512 µg/mL (≈ 1340 µM)
P. aeruginosa AV65 [2]; AV65
  MIC: 256 µg/mL (≈ 668 µM)
A. baumannii VA566/00 [3]; VA566/00
  MIC: 512 µg/mL (≈ 1340 µM)
P. aeruginosa AV65 [4]
  MIC in combination, ATB: 64 µg/mL
P. aeruginosa 854 [5]
  MIC in combination, ATB: 16 µg/mL
A. baumannii VA566/00 [6]
  MIC in combination, ATB: 4 µg/mL
A. baumannii N50 [7]
  MIC in combination, ATB: 64 µg/mL
K. pneumoniae KKBO-4 [8]
  MIC in combination, ATB: 32 µg/mL
K. pneumoniae 044-R [9]
  MIC in combination, ATB: 32 µg/mL
K. pneumoniae KKBO-4 [10]; [16]
  MIC: 64 µg/mL (≈ 167 µM)
A. baumannii N50 [11]; N50
  MIC: 256 µg/mL (≈ 668 µM)
K. pneumoniae 044-R [12]
  MIC: 64 µg/mL (≈ 167 µM)

## C[C@H]1[C@H](NC(=O)/C(=N\OC(C)(C)C(=O)O)c2csc(N)n2)C(=O)N1S(=O)(=O)O [aztreonam]
P. aeruginosa 854 [1]; Pseudomonas aeruginosa, 854
  MIC: 128 µg/mL (≈ 294 µM)
P. aeruginosa AV65 [2]; agent alone, P. aeruginosa AV65 (XDR, IMP-13), read-out: MIC
  MIC: 32 µg/mL (≈ 73.5 µM)
A. baumannii VA566/00 [3]; VA566/00
  MIC: 512 µg/mL (≈ 1180 µM)
P. aeruginosa AV65 [4]
  MIC in combination, ATB: 1 µg/mL
P. aeruginosa 854 [5]
  MIC in combination, ATB: 64 µg/mL
A. baumannii VA566/00 [6]
  MIC in combination, ATB: 16 µg/mL
A. baumannii N50 [7]
  MIC in combination, ATB: 32 µg/mL
A. baumannii N50 [11]; N50
  MIC: 128 µg/mL (≈ 294 µM)

## CC[C@H](C)[C@H](NC(=O)[C@H](CCCCN)NC(=O)[C@@H](N)CCCCN)C(=O)N[C@@H](CCCNC(=N)N)C(=O)N[C@H](C(=O)N[C@@H](CCCNC(=N)N)C(=O)N[C@@H](CC(C)C)C(=O)N[C@@H](CO)C(=O)N[C@@H](C)C(=O)O)C(C)C (stereo in doubt) [SET-M33]
P. aeruginosa 854 [1]; 854
  MIC: 16 µg/mL (≈ 14.9 µM)
[13]; SET-M33 in combination with aztreonam, colistin-resistant strains of K. pneumoniae
  interaction in combination (ΣFIC interpretation): synergistic activity
[13]; SET-M33 in combination with ciprofloxacin, data not shown
  interaction in combination (ΣFIC interpretation): Additivity
[13]; SET-M33 in combination with rifampin, colistin-resistant strains of K. pneumoniae
  interaction in combination (ΣFIC interpretation): synergistic activity
[13]; SET-M33 in combination with tobramycin, one of the A. baumannii strains
  interaction in combination (ΣFIC interpretation): Synergy
[13]; when a synergistic effect was present, e.g. with rifampin, aztreonam and tobramycin
  effect of combination on SET-M33 MIC values: moderately affected
[13]; when the effect was additive or indifferent
  effect of combination on SET-M33 MIC values: not affected
P. aeruginosa AV65 [4]; [18]
  MIC in combination, SET-M33: 8 µg/mL
P. aeruginosa AV65 [4]; [19]
  MIC in combination, SET-M33: 4 µg/mL
P. aeruginosa AV65 [4]; [20]
  MIC in combination, SET-M33: 8 µg/mL
P. aeruginosa AV65 [4]; [21]
  MIC in combination, SET-M33: 2 µg/mL
P. aeruginosa 854 [5]; [18]
  MIC in combination, SET-M33: 8 µg/mL
P. aeruginosa 854 [5]; [19]
  MIC in combination, SET-M33: 8 µg/mL
P. aeruginosa 854 [5]; [20]
  MIC in combination, SET-M33: 8 µg/mL
P. aeruginosa 854 [5]; [21]
  MIC in combination, SET-M33: 8 µg/mL
[14]
  MIC values: 4 to 32 µg/mL
A. baumannii VA566/00 [6]; [18]
  MIC in combination, SET-M33: 4 µg/mL
A. baumannii VA566/00 [6]; [19]
  MIC in combination, SET-M33: 4 µg/mL
A. baumannii VA566/00 [6]; [20]
  MIC in combination, SET-M33: 4 µg/mL
A. baumannii VA566/00 [6]; [21]
  MIC in combination, SET-M33: 8 µg/mL
A. baumannii N50 [7]; [18]
  MIC in combination, SET-M33: 4 µg/mL
A. baumannii N50 [7]; [19]
  MIC in combination, SET-M33: 4 µg/mL
A. baumannii N50 [7]; [20]
  MIC in combination, SET-M33: 8 µg/mL
A. baumannii N50 [7]; [21]
  MIC in combination, SET-M33: 8 µg/mL
K. pneumoniae KKBO-4 [8]; [18]
  MIC in combination, SET-M33: 8 µg/mL
K. pneumoniae KKBO-4 [8]; [19]
  MIC in combination, SET-M33: 8 µg/mL
K. pneumoniae KKBO-4 [8]; [20]
  MIC in combination, SET-M33: 4 µg/mL
K. pneumoniae KKBO-4 [8]; [21]
  MIC in combination, SET-M33: 16 µg/mL
K. pneumoniae 044-R [9]; [18]
  MIC in combination, SET-M33: 8 µg/mL
K. pneumoniae 044-R [9]; [19]
  MIC in combination, SET-M33: 8 µg/mL
K. pneumoniae 044-R [9]; [20]
  MIC in combination, SET-M33: 4 µg/mL
K. pneumoniae 044-R [9]; [21]
  MIC in combination, SET-M33: 16 µg/mL

Source: US20190388494A1, “THERAPEUTIC COMBINATIONS FOR THE TREATMENT OF BACTERIAL INFECTIONS” (SETLANCE S.R.L., priority 2017, published 2019)
